Experimental data as given in article PMC6085350, “Small molecule inhibitors of RAS-effector protein interactions derived using an intracellular antibody fragment” (Nature Communications, 2018).
“And” between values parts separate entries of the source, which are not always exact repeats. Equal values may be shown once. “Also recorded” adds a separate entry of the source. Read-outs that look alike come from different tables or passages of the source.

Assays:
GST-KRASG12V-GppNHp = molecular target: T1, GST-KRASG12V-GppNHp (Homo sapiens, UniProt P01116, G12V); experiment: 1H CPMG NMR protein titration for Kd; format: binding; settings: for Kd: CPMG NMR titration, 55 μM compound, read-out: Kd (binding affinity)
T1 construct: made in house; host or cells: E. coli (pGEX-2T; strain named only for the HRAS plasmids)
Description: Typical experimental parameters for Carr–Purcell-Meiboom-Gill (CPMG) NMR spectroscopy were the following: total echo time, 40 ms; relaxation delay, 2 s; and number of transients, […][53]. The PROJECT-CPMG sequence (90°x-[Ƭ-180°y-Ƭ- 90°y-Ƭ-180°y-Ƭ]n-acq) was applied. Water suppression was achieved by pre-saturation. Prior to Fourier transformation, the data were multiplied with an exponential function with 3-Hz line broadening. The CPMG experiments were conducted at a ^1H frequency of 700 MHz using a Bruker Avance with 5 mm inverse TCI 1 H/13 C/15 N cryo-probe. All experiments were conducted at 298 K and lapsed 128 scans. Furthermore, 3 mm diameter NMR tubes with a sample volume of 200 µl were used in all experiments. Solutions were buffered using a D2O PBS buffer corrected to pH 7.4. The sample preparation is exemplified as follow: with 5 µM of protein (PBS pH 7.4, 5 mM MgCl2), the compound (1.1 µl of a 10 mM (55 uM) solution in DMSO-d6) was added to an eppendorf before sequential addition of the D2O 10 mM PBS, 5 mM MgCl2 buffer adjusted to pH 7.4 (194.0 µl) and protein (4.9 µl, 205 µM, the protein is in an H2O-based buffer for stability reason). The resulting solution was vortexed to be fully mixed and transferred to a 3 mm NMR tube before the run. Negative controls (compound alone, without the protein) were prepared in a similar manner, in order to obtain an end volume of 200 µl. CPMG protein titration experiments were carried out at a fixed compound concentration and a variable protein concentration. It was estimated that 55 μM solution of the compound was optimum for a good CPMG; protein was titrate increasingly from 0 µM until the signal of the compound was undetected in the proton NMR. The integrations of the protons acquired were compared to the reference (compound alone, 0 µM of protein) in order to obtain a percentage of decrease for each concentration of protein. Three different proton signals were used and a mean was calculated for each run. Each protein concentration was run in triplicate and a mean was calculated for each concentration. Where error bars are presented, they correspond to mean values ± SD of experimental repeats. Concentration and percentage of decrease were plotted and Kd fitting was run on the generated curve using Origin® with the following function: A*(1/(2*C))*((B + x + C)-sqrt(((B + x + C)^2)-(4*x*C))) where A is the maximum % of inhibition (i.e. 100), B is the Kd and C is the concentration of the compound which should not be fixed in the Origin® Equation due to potential variations in compound solubility.
Supplementary Figure 6: Abd-7 Binding in WaterLOGSy and Kd calculations in CPMG WaterLOGSY and CPMG NMR orthogonal analysis of Abd-5 (panel a, b), Abd-6 (c, d), and Abd-7 (e, f) with GST-KRASG12V-GppNHp. For each waterLOGSY profile, the proton NMR spectrum of the compound is shown together the spectra of the compound after incubation with the KRAS (the NOE transfers occurs when the compounds displace those waters upon binding to the protein). The Kd of interaction of the compounds come from fitting a binding curve (right of panels b, d, f) of a CPMG titration (shown on the left of panels b, d, f). The calculated Kd is shown for each compound.
(MW), Kd, Solubility and ligand efficiency (LE). Each experiment was repeated at least three times. Where error bars are presented, they correspond to mean values ± SD of experimental repeats (b, d and f).

HT1080 cells (NRAS^Q61K) = experiment: Cell viability (CellTiterGlo), HT1080; format: cell-based, human; settings: for IC50: Homo sapiens, HT-1080; for effect on cell viability: HT1080, 0–20 μM, up to 72 h
Description: Fig. 5 Abd-7 results on RAS-dependent signalling pathways and cell viability. a, b DLD-1 (a) or H358 (b) cells were serum-starved for 24 h, incubated in mono-layer with Abd-7 in a range from 2, 5, 10 and 20 μM for 3 h and stimulated with EGF 10 min. Proteins were extracted and separated by SDS-PAGE and transferred to membranes for Western analysis with anti-pAKT, anti-pERK, anti-pan AKT and anti-pan ERK. Anti-cyclophilin B antibody was the loading control. Signal was developed using standard ECL. c–e Effects of compounds Abd-2, Abd-4, Abd-5, Abd-6, and Abd-7 on the viability of human cancer cells lines was assessed for a 2-D culture of DLD-1 (mutant KRAS^G13D) cells and HT1080 cells (mutant NRAS^Q61K). The cells were treated with a dose range from 0 μM to 20 μ and incubated for 72 h when cell viability was assessed using CellTitreGlo. […] Each experiment was repeated at least three times (a, b) and four times (c, d). Where error bars are presented, they correspond to mean values ± SD of biological repeats […]
Cancer cell lines were in seeded in ViewPlates-96 microplates (PerkinElmer). DLD-1 cells were plated at 10,000 cells per well and HT1080 cells at 7500 cells per well and cultured in DMEM, high glucose, GlutaMAX media containing 10% FBS at 37 °C in 5% CO2 atmosphere. Cells were cultured overnight and the compounds (dissolved in DMSO and diluted to 0.2% DMSO) were added to the cells at concentrations ranging from 0 to 20 μM. The cells were incubated under standard culture conditions for either 24, 48 or 72 h. Cell viability was as quantitated using the CellTiterGlo Luminescent Cell Viability Assay (Promega) according to the manufacturer’s instructions to measure ATP generated by metabolically active cells. Luminescent signals were measured using an Envision 2103 Multilabel Microplate Reader (PerkinElmer). The luminescence signals obtained from the compound-treated cells were normalized against the signal for DMSO-only treated cells. The IC50 values, calculated from the 48 and 72 h CellTiterGlo data, were generated by non-linear regression using the software GraphPad Prism 7.00 for windows (GraphPad Inc).
Supplementary Figure 7: The effect of Abd compounds on the viability of cancer cells The effect of the chemical series on the viability of human cancer cells lines DLD -1 (a colorectal cancer cell line with mutant KRAS
) and HT1080 (a fibrosarcoma cell line with
). The cells were treated with a dose range from […] of either
Abd-2, Abd-4, Abd-5, Abd-6 and Abd-7 and incubated for 24 or 48 hours. Cell viability was assessed using CellTitreGlo . In each case, the data are normalized to cells treated with DMSO only. Panels a and b are DLD-1 viability and panels c and d are HT1080 viability.
The IC50 for Abd-7 at 48 & 72 […]
hours are shown in panel f. Each experiment was repeated at least four times ( a to d).
Where error bars are presented, they correspond to mean values ± SD of biological repeats.
(1 picture or pasted object on this page, not shown here)

Row | Structure (SMILES) | ligand efficiency (GST-KRASG12V-GppNHp) | Kd (GST-KRASG12V-GppNHp) [µM] | IC50 (HT1080 cells (NRAS^Q61K); HT1080, 48 h, Supplementary Fig. 7f, read-out: HT1080 IC50 48h) [µM] | IC50 (HT1080 cells (NRAS^Q61K); HT1080, 48 h as printed in discussion, read-out: IC50 cell viability) [µM] | IC50 (HT1080 cells (NRAS^Q61K); HT1080, 72 h, read-out: IC50 cell viability) [µM] | effect on cell viability (HT1080 cells (NRAS^Q61K))
1 | COc1nc(-c2cccc3c2OCCO3)ccc1Nc1ccc(CN(C)C)cc1 [Abd-7] | ~0.3 and 0.34 | 0.051 | 9.4 | ~10 | 10 | 
2 | COc1nc(-c2cccc3c2O[C@H](CNC(=O)C2CCOCC2)CO3)ccc1Nc1cccc(CN(C)C)c1 [Abd-6] | ~0.3 | 0.038 |  |  |  | have an effect on the viability
3 | O=C(NCC1COc2ccccc2O1)c1ccco1 (stereo not drawn) [Abd-2] |  |  |  |  |  | no effect on cell viability; also recorded: had not effect
4 | COc1cccc(-c2cccc3c2OC(CNC(=O)c2ccc(OCCN(C)C)cc2)CO3)n1 (stereo not drawn) [Abd-5] | ~0.3 | 0.22 |  |  |  | have an effect on the viability
